Results taken from PMC7719179, “Small molecule inhibition of Dynamin-dependent endocytosis targets multiple niche signals and impairs leukemia stem cells” (Nature Communications, 2020).
Several values for one entry are separate records, joined by “and”; a condition that tells them apart may be missing. Equal values may be shown once. Read-outs that look alike come from different tables or passages of the source.

Legend:
Lmo2^Tg primary T-ALL = experiment: Survival (Kaplan-Meier) and leukemia growth delay in recipients of Lmo2^Tg primary T-ALL; format: in vivo, mouse; settings: * = non-leukemic at endpoint
Method: Single-cell suspension of murine thymus cells were intravenously injected into sublethally irradiated (650 Rads) isogenic Ly5.1 (Cd45.1) mice. Fold expansion was calculated by dividing the absolute output number of donor-derived DN3a cells harvested at the experimental endpoint by the respective number of DN3a thymocytes injected in each recipient. Limiting dilution transplantations were performed as described, by injecting various doses (10^1 to 10^6) of thymocytes per recipient, and mice were scored positive when T-cell lineage reconstitution assessed 6 weeks after transplantation was >1%. Leukemia-propagating cell frequency was calculated by applying Poisson statistics using the ELDA: Extreme Limiting Dilution Analysis software (Walter and Eliza Hall Institute Bioinformatics, Parkville VIC, Australia)[96]. Limiting dilution transplantations were performed independently from any other transplantation assays, using thymocytes from three different Lmo2^Tg mice for each cohort. Kaplan–Meier survival and statistical analysis were performed using GraphPad Prism. 6.0 software (GraphPad Software Inc, San Diego CA, USA). […]
derived leukemic cells (%Cd45.2+) in the peripheral blood (PB) of recipients injected with Lmo2 Tg primary leukemias (T-ALL 582, n=5/cohort; T-ALL 273, n=7/cohort; T-ALL 249, n=5/cohort) treated with Dynole 34-2, VXL or combination therapy. […]

[1] = test system: self-renewing pre-LSCs in Mx;YFP;Lmo2^Tg mice; experiment: Intrathymic competition assay in Mx;YFP;Lmo2^Tg mice (%YFP+ DN3a thymocytes, BM); format: in vivo, mouse
Excerpt: To exclude this possibility, we used a cell-marking strategy that enables detection of pre-LSCs in the absence of transplantation. In this assay, treatment of Mx1-Cre transgenic Rosa26-YFP (Mx;YFP) reporter mice with polyinosinic-polycytidylic acid (poly (I : C)) induces yellow fluorescent protein (YFP) expression in hematopoietic stem cells (HSCs)[10] (Supplementary Fig. 4e). In WT Mx;YFP mice, normal turnover of the thymus by HSCs leads to the generation of YFP-labelled DN3a cells over a 3-week period. However, in Mx;YFP;Lmo2^Tg mice, the presence of self-renewing pre-LSCs prevents YFP-labelled HSCs to replenish the thymus[10] and, thus, Lmo2^Tg DN3a thymocytes remain YFP negative. Therefore, we reasoned that therapies targeting pre-LSC self-renewal would allow migration of YFP^+ HSCs with the generation of YFP-labelled thymocytes.

GFP^hi DN3a thymocytes = experiment: Cell cycle-restricted GFP^hi DN3a thymocytes in treated H2B-GFP;Lmo2^Tg mice; format: in vivo, mouse
primary Lmo2^Tg T-ALL = experiment: Relative viability and LC50 on primary Lmo2^Tg leukemias, 48 h; format: cell-based, mouse; set-up: Relative % viable cells: unit of the concentration uncertain; settings: for viability at 200 µM / viability at 40 µM: Mus musculus
Method: Supplementary Figure 6 . Efficacy of Dynole 34-2 on primary Lmo2-transgenic T-ALL. a, Relative viability (%) of primary Lmo2Tg leukemias treated with increasing concentration of Dynole 34-2 for 48 hours. Viability was normalized to vehicle-treated cells with experiments performed in duplicates or triplicates. […]
concentration (LC50) of Dynole 34-2 for each primary L mo2Tg T-ALL are indicated (right panel). […]

pre-LSC self-renewal = experiment: Serial transplantation assay of thymocytes from treated Lmo2^Tg mice; format: in vivo, mouse
Method: For primary transplantation, single-cell suspension of 2 × 10^6 thymocytes were intravenously injected into sublethally irradiated (650 Rads) isogenic Ly5.1 (Cd45.1) mice. Analysis was performed 4 weeks after transplantation and 5 × 10^6 thymocytes harvested from recipients were subsequently injected into sublethally irradiated (650 Rads) Ly5.1 (Cd45.1) recipients for the secondary and tertiary transplantations, as previously described.
Supplementary Figure 3. In vivo effect of Dynole 34-2. a, Treatment schematic and pharmacokinetic analysis of serum levels (µ M) of Dynole 34-2 at different time points (15, 30, 60, 120 and 240 minutes) following a single intraperitoneal injection (grey arrow) in 5 recipients (A, B, C, D, E). Average maximum concentration (Cmax), the time taken to reach this maximum concentration (Tmax), and the half-life (T 1/2) of Dynole 34-2 in the serum of treated mice are indicated.
Average concentration for each time point is indicated (bar). b , Treatment schematic and fold expansion of donor-derived L mo2-transgenic DN3a thymocytes enumerated in the thymus of primary (I), secondary (II) and tertiary (III) recipients, assessed four weeks after transplantation of cells harvested from 5 independent mice per cohort of donors. Number of recipients engrafted for each condition is indicated. Mean ± SD (N = number of independent mice analysed), Student’s t-test;

Structure (SMILES): CCCCCCCCNC(=O)C(C#N)=Cc1cn(CCCN(C)C)c2ccccc12 [Dynole 34-2, 2-Cyano-N-octyl-3-(1-(3-dimethylaminopropyl)-1H-indol-3-yl)-acrylamide]
- Time to leukemia (Lmo2^Tg primary T-ALL; recipients of primary T-ALL 249): 3.7 weeks and 3 weeks and 3.4 weeks
- Time to leukemia (Lmo2^Tg primary T-ALL; recipients of primary T-ALL 582): 4.1 weeks and 5.6 weeks and 5.7 weeks and 6 weeks and 6.3 weeks
- % YFP+ cells in DN3a population ([1]; Mx, YFP, Lmo2Tg mice, individual mice): 70.1% and 38.6% and 29.3%
- YFP-labelled DN3a thymocytes ([1]; Mx;YFP;Lmo2^Tg mice, vehicle 10%): 46%
- % YFP+ cells in bone marrow ([1]; genotype Mx, YFP, Lmo2Tg): 99% and 98.9%
- proportion of GFP^hi cells in DN3a thymocytes (GFP^hi DN3a thymocytes; H2B-GFP;Lmo2^Tg mice, result in words): did not affect
- % GFPhi cells in DN3a population (GFP^hi DN3a thymocytes; mouse, in vivo): 1.5% and 3.3% and 0.2% and 1.3%
- repopulation activity and leukemogenicity of GFP^hi DN3a thymocytes (GFP^hi DN3a thymocytes; result in words): significantly impaired
- viability at 200 µM (primary Lmo2^Tg T-ALL; read-out: Relative % viable cells, T-ALL 249, dose 0.2 mM): 94.3%
- viability at 40 µM (primary Lmo2^Tg T-ALL; read-out: Relative % viable cells, T-ALL 257, dose 0.04 mM): 92.3%
- viability at 200 µM (primary Lmo2^Tg T-ALL; read-out: Relative % viable cells, T-ALL 257, dose 0.2 mM): 76.4%
- viability at 200 µM (primary Lmo2^Tg T-ALL; read-out: Relative % viable cells, T-ALL 273, dose 0.2 mM): 96.1%
- viability at 200 µM (primary Lmo2^Tg T-ALL; read-out: Relative % viable cells, T-ALL 582, dose 0.2 mM): 97.6%
- viability at 40 µM (primary Lmo2^Tg T-ALL; read-out: Relative % viable cells, T-ALL 588, dose 0.04 mM): 114%
- Relative % viable cells (primary Lmo2^Tg T-ALL; T-ALL 249, dose 0.2 (unit uncertain)): 101.0% and 98.6%
- Relative % viable cells (primary Lmo2^Tg T-ALL; T-ALL 249, dose 1 (unit uncertain)): 97.4%
- Relative % viable cells (primary Lmo2^Tg T-ALL; T-ALL 249, dose 5 (unit uncertain)): 98.6% and 97.8%
- Relative % viable cells (primary Lmo2^Tg T-ALL; T-ALL 249, dose 25 (unit uncertain)): 14.0%
- Relative % viable cells (primary Lmo2^Tg T-ALL; T-ALL 257, dose 0.04 (unit uncertain)): 86.6%
- Relative % viable cells (primary Lmo2^Tg T-ALL; T-ALL 257, dose 0.2 (unit uncertain)): 75.9%
- Relative % viable cells (primary Lmo2^Tg T-ALL; T-ALL 257, dose 1 (unit uncertain)): 71.8%
- Relative % viable cells (primary Lmo2^Tg T-ALL; T-ALL 257, dose 5 (unit uncertain)): 49.8%
- Relative % viable cells (primary Lmo2^Tg T-ALL; T-ALL 273, dose 0.2 (unit uncertain)): 96.5% and 91.9%
- Relative % viable cells (primary Lmo2^Tg T-ALL; T-ALL 273, dose 1 (unit uncertain)): 92.9% and 93.1%
- Relative % viable cells (primary Lmo2^Tg T-ALL; T-ALL 273, dose 5 (unit uncertain)): 56.4% and 42.9%
- Relative % viable cells (primary Lmo2^Tg T-ALL; T-ALL 273, dose 10 (unit uncertain)): 20.2% and 18.0%
- Relative % viable cells (primary Lmo2^Tg T-ALL; T-ALL 273, dose 25 (unit uncertain)): 17.9%
- Relative % viable cells (primary Lmo2^Tg T-ALL; T-ALL 582, dose 0.2 (unit uncertain)): 94.2%
- Relative % viable cells (primary Lmo2^Tg T-ALL; T-ALL 582, dose 1 (unit uncertain)): 97.3%
- Relative % viable cells (primary Lmo2^Tg T-ALL; T-ALL 582, dose 5 (unit uncertain)): 75.4% and 57.9%
- Relative % viable cells (primary Lmo2^Tg T-ALL; T-ALL 582, dose 10 (unit uncertain)): 8.4% and 8.6%
- Relative % viable cells (primary Lmo2^Tg T-ALL; T-ALL 582, dose 25 (unit uncertain)): 6.2%
- Relative % viable cells (primary Lmo2^Tg T-ALL; T-ALL 588, dose 0.04 (unit uncertain)): 111.1%
- Relative % viable cells (primary Lmo2^Tg T-ALL; T-ALL 588, dose 0.2 (unit uncertain)): 107.5% and 75.9%
- Relative % viable cells (primary Lmo2^Tg T-ALL; T-ALL 588, dose 1 (unit uncertain)): 100.1%
- Relative % viable cells (primary Lmo2^Tg T-ALL; T-ALL 588, dose 5 (unit uncertain)): 75.8%
- Relative % viable cells (primary Lmo2^Tg T-ALL; T-ALL 588, dose 25 (unit uncertain)): 11.9%
- Relative % viable cells (primary Lmo2^Tg T-ALL; T-ALL 742, dose 0.2 (unit uncertain)): 53.7% and 80.5%
- Relative % viable cells (primary Lmo2^Tg T-ALL; T-ALL 742, dose 1 (unit uncertain)): 25.7%
- Relative % viable cells (primary Lmo2^Tg T-ALL; T-ALL 742, dose 5 (unit uncertain)): 22.9%
- Relative % viable cells (primary Lmo2^Tg T-ALL; T-ALL 742, dose 25 (unit uncertain)): 0.0%
- killing of LSCs from primary Lmo2^Tg T-ALL (primary Lmo2^Tg T-ALL; result in words): dose-dependent killing
- repopulating activity in serial transplantation (pre-LSC self-renewal; tertiary recipients, result in words): complete loss of repopulating activity
- Fold expansion DN3a cells (pre-LSC self-renewal; transplant III): 0.1 fold and 0.11 fold
